Measurements reported in patent US20090158465A1, “TRANSGENIC PLANTS WITH ENHANCED DROUGHT-RESISTANCE AND METHOD FOR PRODUCING THE PLANTS” (priority 2006, published 2009).

Columns and labels:
[1] = test system: stomata (guard cells) of abo1-1 and wild-type plants; experiment: Stomatal aperture (closing) bioassay with ABA; format: cell-based, Arabidopsis thaliana
Experimental: Stomatal closing assays were conducted as described previously (Pei, Z. M. et al., Plant Cell 9:409-42 (1997)). Rosette leaves were floated in solutions containing 50 μM CaCl2, 10 mM KCl, 10 mM MES [2-(N-morpholino)ethanesulfonic acid]-Tris, pH 6.15, and exposed to light (150 μmol m-2 s-1) for 2 h. […] After ABA treatment for 2 h, stomatal apertures were measured as described previously (Pei, Z. M. et al., Plant Cell 9:409-42 (1997)). Values are means ±standard errors (SE) (n=30). Significance (P<0.05) was assessed by Student's t test.
In order to determine the cause of the drought-resistant phenotype of the abo1-1 mutant, we performed experiments to determine whether this phenotype is related to increased sensitivity of stomatal closure to ABA. abo1-1 and wild-type plants were exposed to high humidity for 12 h to open stomata fully. […]

[2] = test system: abo1-1 and wild-type seedlings; experiment: Seedling growth on MS medium containing ABA; format: in vivo, Arabidopsis thaliana; details: abo1-1 versus wild type; 5-day-old seedlings transferred to different concentrations of ABA, scored one week later
Experimental: Plants were grown in 340-ml pots filled with a mixture of peat/forest soil and vermiculite (3:1) in a greenhouse at 22° C., with light intensity of 50 μmol m-2 s-1 and 70% rH under long-day conditions (16-h-light/8-h-dark cycle). Seedlings were germinated and grown on Murashige and Skoog (MS) medium (M5519; Sigma) supplemented with 3% (wt/vol) sucrose and 0.8% agar under the same growth conditions.
We also analyzed the ABA sensitivities of abo1-plants in seed germination and seedling growth. Seedlings grown for 5 days on MS medium were transferred to MS media containing different concentrations of ABA. One week later, the plants were scored for visible changes. Without ABA, the root growth of abo1-1 plants was slower than that of wild-type plants but they had similar levels of shoot growth. […] The postgermination growth of abo1-1 seedlings was more impaired than that of the wild type, as indicated by the ratio of seedlings with green cotyledons to the total number of seedlings after germination for 1 week (FIG. 3D).

[3] = test system: abo1-1 and wild-type leaves; experiment: Oxidative stress: leaves from soil-grown plants treated with MV or H2O2 (damage, ion leakage); parameters: species or system Arabidopsis thaliana
Experimental: (§1) The leaves taken from plants grown in soil were treated with 1 μM MV. […] Electrolyte leakage (conductivity) is often used as an indicator of tissue damage. […] Rose Bengal is another reagent that generates H2O2 when exposed to the light. […] This was supported by ion leakage measurements at different time points (FIG. 4H).

[4] = test system: abo1 mutant and wild-type seedlings; experiment: Oxidative stress: seedlings exposed to Rose Bengal; format: in vivo, Arabidopsis thaliana; details: 10 μM Rose Bengal for 3 days
Experimental: as §1

[5] = test system: abo1-1 and wild-type seedlings; experiment: Oxidative stress: seedlings on MS medium supplemented with MV; format: in vivo, Arabidopsis thaliana
Description: ABA can induce the expression of genes encoding antioxidant enzymes (Guan, L. et al., Plant Physiol. 117:217-224 (1998); Zhu, D. et al., Plant Physiol. 106:173-178 (1994)). ABA also induces the production of reactive oxygen species that serve as a second messenger in ABA signaling in guard cells (Jiang, M. et al., Plant Cell Physiol. 42:1265-127 (2001); Pei, Z. M. et al., Nature 406:731-73 (2000)). In order to test whether the ABA sensitivity of abo1-1 seedlings might be connected with reactive oxygen species, we analyzed the response of abo1-1 mutant plants to oxidative stress. Methyl viologen (MV) (paraquat) inhibits electron transport in the reduction of NADP to NADPH during photosynthesis and thus enhances H2O2 production in chloroplasts under light (Suntres, Z. E. Toxicology 180:65-7 (2002)). Seedlings grown on MS medium for 5 days were transferred to new MS medium supplemented with different concentrations of MV. The abo1-1 seedlings grew well on MS medium supplemented with 3 μM MV, while more than 50% of wild-type seedlings were killed at this concentration (FIG. 4A) after a 5-day treatment. […] Seed germination was inhibited to similar extents for both abo1-1 and wild-type plants by various concentrations of MV. After radicles emerged, the young seedlings were more sensitive to MV.

In the case of `CC1=CC(=O)CC(C)(C)[C@@]1(O)/C=C/C(C)=C\C(=O)O` [ABA, abscisic acid], the stomatal closure ([1]; abo1-1 plants, 1 μM ABA for 2 h) is reported as “almost completely closed”, the “ABA concentration enhancing stomatal closure in abo1-1 to the same degree as 10 μM ABA in the wild type” value ([1]; abo1-1 plants, preopened stomata, FIG. 2B) is reported as 0.5 µM and the stomatal closure ([1]; wild-type plants, 20 μM ABA, same treatment time (2 h), data not shown) is reported as “did not completely close”. For the same compound, the “root and shoot growth” value [2] was “more inhibited than that of the wild type”.
For `OO` [H2O2], the leaf damage ([3]; wild-type leaves versus abo1-1 leaves, 10 mM H2O2 for 5 days) was “more damaged than abo1-1 leaves”.
`O=C([O-])c1c(Cl)c(Cl)c(Cl)c(Cl)c1-c1c2cc(I)c(=O)c(I)c-2oc2c(I)c([O-])c(I)cc12.[Na+].[Na+]` [Rose Bengal] was tested, and the cotyledon damage ([4]; abo1 mutant) was “no chlorotic symptom observed” and the cotyledon damage ([4]; wild-type seedlings) was “severely damaged the cotyledons”.
`C[n+]1ccc(-c2cc[n+](C)cc2)cc1` [MV, Methyl viologen] was tested, and the “cotyledons affected (greening prevented)” value ([5]; abo1-1, 1.2 μM MV for 10 days) was 40%, the seedling growth ([5]; abo1-1 seedlings, 3 μM MV, 5-day treatment) was “grew well” and the seedling survival ([5]; abo1 mutant seedlings, 6 μM MV) was “still survived”. For the same compound, the “seedlings with cotyledon greening prevented” value ([5]; wild-type seedlings, 1.2 μM MV for 10 days) was “more than 90%”, the seedlings killed ([5]; wild-type seedlings, 3 μM MV, 5-day treatment) was “more than 50%” and the seedling survival ([5]; wild-type seedlings, 4 μM MV) was “completely killed all”. The “ion leakage (electrolyte leakage, conductivity)” value ([3]; abo1-1 leaves versus wild type, 1 μM MV) was “substantially less ion leakage than the wild-type leaves”, the leaf damage ([3]; abo1-1 leaves, 1 μM MV, after 5 days) was “enhanced anthocyanin pigmentation but without any apparent chlorotic symptom” and the leaf damage ([3]; wild-type leaves, 1 μM MV, after 5 days) was “severely damaged and displayed chlorotic spots or bleaching”.
